Experimental data from patent US9226927B2, “Gamma secretase inhibitors” (MERCK SHARP & DOHME CORP., priority 2011, dated 2016).

The compounds below were run against γ-secretase (Homo sapiens (Human), UniProt P49768) (assay: γ-secretase membrane assay with Aβ40 ECL immunoassay). Conditions: membranes of 293 cells expressing C99 (SPC99-lon), 37° C. for 1 h, Aβ 40 by ECL immunoassay.
Assay type: biochemical
Protocol: Gamma-secretase activity was determined as described by Zhang et al. (Biochemistry, 40 (16), 5049-5055, 2001), which is herein incorporated by reference. Activity is expressed either as a percent inhibition or as the concentration of compound producing 50% inhibition of enzyme activity.
The construct SPC99-Ion, which contains the first 18 residues and the C-terminal 99 amino acids of APP carrying the London mutation, has been described (Zhang, L., Song, L., and Parker, E. (1999) J. Biol. Chem. 274, 8966-8972). Upon insertion into the membrane, the 17 amino acid signal peptide is processed, leaving an additional leucine at the N-terminus of Aβ. SPC99-lon was cloned into the pcDNA4/TO vector (Invitrogen) and transfected into 293 cells stably transfected with pcDNA6/TR, which is provided in the T-REx system (Invitrogen). The transfected cells were selected in Dulbecco's modified Eagle's media (DMEM) supplemented with 10% fetal bovine serum, 100 units/mL penicillin, 100 µg/mL streptomycin, 250 µg/mL zeocin, and 5 µg/mL blasticidin (Invitrogen). Colonies were screened for Aβ production by inducing C99 expression with […] tetracycline for 16-20 h and analyzing conditioned media with a sandwich immunoassay (see below). One of the clones, designated as pTRE.15, was used in these studies.
C99 expression in cells was induced with […] tetracycline for 20 h. The cells were pretreated with […] 12-myristate 13-acetate (PMA) and […] brefeldin A (BFA) for 5-6 h at 37 C before harvesting. The cells were washed 3 times with cold phosphate-buffered saline (PBS) and harvested in buffer A containing 20 mM Hepes (pH 7.5), 250 mM sucrose, 50 mM KCl, 2 mM EDTA, 2 mM EGTA, and Complete protease inhibitor tablets (Roche Molecular Biochemicals). The cell pellets were flash-frozen in liquid nitrogen and stored at −70° C. before use.
To make membranes, the cells were resuspended in buffer A and lysed in a nitrogen bomb at 600 psi. The cell lysate was centrifuged at 1500 g for 10 min to remove nuclei and large cell debris. The supernatant was centrifuged at 100000 g for 1 h. The membrane pellet was resuspended in buffer A plus 0.5 M NaCl, and the membranes were collected by centrifugation at 200000 g for 1 h. The salt-washed membrane pellet was washed again in buffer A and centrifuged at 100000 g for 1 h. The final membrane pellet was resuspended in a small volume of buffer A using a Teflon-glass homogenizer. The protein concentration was determined, and membrane aliquots were flash-frozen in liquid nitrogen and stored at −70° C.
To measure γ-secretase activity, membranes were incubated at 37° C. for 1 h in 50 μL of buffer containing 20 mM Hepes (pH 7.0) and 2 mM EDTA. At the end of the incubation, Aβ 40 and Aβ 42 were measured using an electrochemiluminescence (ECL)-based immunoassay. Aβ 40 was identified with antibody pairs TAG-G2-10 and biotin-W02, while Aβ 42 was identified with TAG-G2-11 and biotin-4G8. The ECL signal was measured using an ECL-M8 instrument (IGEN International, Inc.) according to the manufacturer's instructions. The data presented were the means of the duplicate or triplicate measurements in each experiment. The characteristics of γ-secretase activity described were confirmed using more than five independent membrane preparations.
`O=S(=O)(CC[C@@H]1OCC[C@@]2(S(=O)(=O)c3ccc(Cl)cc3)c3c(F)ccc(F)c3OC[C@@H]12)CCn1cccn1` [Compound 4] showed an IC50 of 1.4 nM.
`O=S(=O)(CC[C@@H]1OCC[C@@]2(S(=O)(=O)c3ccc(Cl)cc3)c3c(F)ccc(F)c3OC[C@@H]12)Cc1ccccn1` [Compound 8a] gave an IC50 of 1.9 nM.
With `O=S(=O)(CC[C@@H]1OCC[C@@]2(S(=O)(=O)c3ccc(Cl)cc3)c3c(F)ccc(F)c3OC[C@@H]12)Cc1cccnc1` [Compound 8b] the IC50 was 6.6 nM.
In the case of `O=S(=O)(CC[C@@H]1OCC[C@@]2(S(=O)(=O)c3ccc(Cl)cc3)c3c(F)ccc(F)c3OC[C@@H]12)Cc1ncon1` [Compound 11], the IC50 is reported as 1.7 nM.
With `Cc1nc(CS(=O)(=O)CC[C@@H]2OCC[C@@]3(S(=O)(=O)c4ccc(Cl)cc4)c4c(F)ccc(F)c4OC[C@@H]23)no1` [Compound 14] the IC50 was 5.8 nM.
`O=c1ccc(S(=O)(=O)CC[C@@H]2OCC[C@@]3(S(=O)(=O)c4ccc(Cl)cc4)c4c(F)ccc(F)c4OC[C@@H]23)c[nH]1` [Compound 25a] gave an IC50 of 18.7 nM.
In the case of `O=S(=O)(CC[C@@H]1OCC[C@@]2(S(=O)(=O)c3ccc(Cl)cc3)c3c(F)ccc(F)c3OC[C@@H]12)c1cccnn1` [Compound 25b], the IC50 is reported as 4.5 nM.
With `O=S(=O)(CC[C@@H]1OCC[C@@]2(S(=O)(=O)c3ccc(Cl)cc3)c3c(F)ccc(F)c3OC[C@@H]12)c1cnccn1` [Compound 25c] the IC50 was 5.5 nM.
Work on `O=S(=O)(CC[C@@H]1OCC[C@@]2(S(=O)(=O)c3ccc(Cl)cc3)c3c(F)ccc(F)c3OC[C@@H]12)c1ccnnc1` [Compound 25d] yielded an IC50 of 10.2 nM.
With `O=S(=O)(CC[C@@H]1OCC[C@@]2(S(=O)(=O)c3ccc(Cl)cc3)c3c(F)ccc(F)c3OC[C@@H]12)c1ncccn1` [Compound 25e] the IC50 was 6.4 nM.
For `O=S(=O)(CC[C@@H]1OCC[C@@]2(S(=O)(=O)c3ccc(Cl)cc3)c3c(F)ccc(F)c3OC[C@@H]12)c1ccncn1` [Compound 25f], the IC50 was 2.9 nM.
With `O=S(=O)(CC[C@@H]1OCC[C@@]2(S(=O)(=O)c3ccc(Cl)cc3)c3c(F)ccc(F)c3OC[C@@H]12)c1cncnc1` [Compound 25g] the IC50 was 12.9 nM.
Compound `COc1ccc(S(=O)(=O)CC[C@@H]2OCC[C@@]3(S(=O)(=O)c4ccc(Cl)cc4)c4c(F)ccc(F)c4OC[C@@H]23)cn1` [Compound 25h] has an IC50 of 16.5 nM.
`O=c1[nH]cccc1S(=O)(=O)CC[C@@H]1OCC[C@@]2(S(=O)(=O)c3ccc(Cl)cc3)c3c(F)ccc(F)c3OC[C@@H]12` [Compound 27a] was tested, and the IC50 was 2.8 nM.
`Nc1ncccc1S(=O)(=O)CC[C@@H]1OCC[C@@]2(S(=O)(=O)c3ccc(Cl)cc3)c3c(F)ccc(F)c3OC[C@@H]12` [Compound 27b] gave an IC50 of 18 nM.
